According to PubChem BioAssay AID248 (DTP/NCI, 2004):
Values joined by “and” are separate entries in the source; they are usually repeats but may differ in a detail not shown here. Equal entries are not always repeated. Inconclusive results and toxic doses are left out.

Tested on: L1210 leukemia ip in BDF1 mice, survival T/C
Test: NCI In Vivo Anticancer Drug Screen. Data for tumor model L1210 Leukemia (intraperitoneal) in B6D2F1 (BDF1) mice
Conditions: endpoint: mean survival time, higher = longer survival
Summary of the method: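 Tumor cells were implanted, animals were treated, and survival was followed. The result divides the treated measurement by the vehicle-control measurement.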

[1] = dose: 50.0 mg/kg/injection, schedule: Q01DX001 (ip), vehicle: saline
[2] = dose: 100.0 mg/kg/injection, schedule: Q01DX001 (ip), vehicle: Klucel (hydroxypropylcellulose) (HPC)
[3] = dose: 200.0 mg/kg/injection, schedule: Q01DX001 (ip), vehicle: Klucel (hydroxypropylcellulose) (HPC)
[4] = dose: 400.0 mg/kg/injection, schedule: Q01DX001 (ip), vehicle: Klucel (hydroxypropylcellulose) (HPC)
[5] = dose: 100.0 mg/kg/injection, schedule: Q04DX003 (ip), vehicle: saline with Tween-80
[6] = dose: 200.0 mg/kg/injection, schedule: Q04DX003 (ip), vehicle: saline with Tween-80
[7] = dose: 400.0 mg/kg/injection, schedule: Q04DX003 (ip), vehicle: saline with Tween-80
[8] = dose: 100.0 mg/kg/injection, schedule: Q04DX003 (ip), vehicle: Klucel (hydroxypropylcellulose) (HPC)
[9] = dose: 200.0 mg/kg/injection, schedule: Q04DX003 (ip), vehicle: Klucel (hydroxypropylcellulose) (HPC)
[10] = dose: 400.0 mg/kg/injection, schedule: Q04DX003 (ip), vehicle: Klucel (hydroxypropylcellulose) (HPC)
[11] = dose: 50.0 mg/kg/injection, schedule: Q04DX003 (ip), vehicle: Klucel (hydroxypropylcellulose) (HPC)

With `COc1cc(C=Nc2ccc3ccccc3c2)ccc1N(CCCl)CCCl` the T/C (dose: 0.9 mg/kg/injection, schedule: Q01DX009 (ip), vehicle: carboxymethylcellulose (CMC)) was 102 % of control, the T/C (dose: 1.3 mg/kg/injection, schedule: Q01DX009 (ip), vehicle: carboxymethylcellulose (CMC)) was 118 % of control and the T/C (dose: 1.5 mg/kg/injection, schedule: Q01DX009 (ip), vehicle: carboxymethylcellulose (CMC)) was 108 % of control. The T/C (dose: 3.0 mg/kg/injection, schedule: Q01DX009 (ip), vehicle: carboxymethylcellulose (CMC)) was 114 % of control and 117 % of control, the T/C (dose: 6.0 mg/kg/injection, schedule: Q01DX009 (ip), vehicle: carboxymethylcellulose (CMC)) was 122 % of control and the T/C (dose: 20.0 mg/kg/injection, schedule: Q01DX009 (ip), vehicle: carboxymethylcellulose (CMC)) was 119 % of control. The T/C (dose: 30.0 mg/kg/injection, schedule: Q01DX009 (ip), vehicle: carboxymethylcellulose (CMC)) was 100 % of control, the T/C (dose: 40.0 mg/kg/injection, schedule: Q01DX001 (ip), vehicle: carboxymethylcellulose (CMC)) was 151 % of control and the T/C (dose: 75.0 mg/kg/injection, schedule: Q01DX001 (ip), vehicle: carboxymethylcellulose (CMC)) was 119 % of control.

`CCOC(=O)CN1CCC(C(=O)OCC)CC1` was tested, and the T/C (dose: 50.0 mg/kg/injection, schedule: Q01DX001 (ip), vehicle: carboxymethylcellulose (CMC)) was 106 % of control, the T/C (dose: 100.0 mg/kg/injection, schedule: Q01DX001 (ip), vehicle: carboxymethylcellulose (CMC)) was 97 % of control and the T/C (dose: 200.0 mg/kg/injection, schedule: Q01DX001 (ip), vehicle: carboxymethylcellulose (CMC)) was 103 % of control. The T/C (dose: 400.0 mg/kg/injection, schedule: Q01DX001 (ip), vehicle: carboxymethylcellulose (CMC)) was 106 % of control.

`CN=[N+]([O-])C1(OC(C)=O)CCCC1` was tested, and the T/C (dose: 6.25 mg/kg/injection, schedule: Q01DX001 (ip), vehicle: saline) was 117 % of control, the T/C (dose: 12.5 mg/kg/injection, schedule: Q01DX001 (ip), vehicle: saline) was 110 % of control and the T/C (dose: 25.0 mg/kg/injection, schedule: Q01DX001 (ip), vehicle: saline) was 117 % of control. For the same compound, the T/C [1] was 113 % of control.

With `CNC(=O)NNC(=O)c1ccc(Cl)cc1` the T/C (dose: 25.0 mg/kg/injection, schedule: Q01DX009 (ip), vehicle: saline with Tween-80) was 91 % of control and the T/C (dose: 50.0 mg/kg/injection, schedule: Q01DX009 (ip), vehicle: saline with Tween-80) was 94 % of control.

With `O=C1OCC(CN2CC3CCC(CC3)C2)=C1c1ccccc1` the T/C [2] was 94 % of control, the T/C [3] was 102 % of control and the T/C [4] was 94 % of control.

`CCCCCCCCC1NC1CCCCCCCC` (configuration not stated) was tested, and the T/C (dose: 25.0 mg/kg/injection, schedule: Q04DX002 (ip), vehicle: saline with Tween-80) was 98 % of control, the T/C (dose: 50.0 mg/kg/injection, schedule: Q04DX002 (ip), vehicle: saline with Tween-80) was 88 % of control and the T/C (dose: 100.0 mg/kg/injection, schedule: Q04DX002 (ip), vehicle: other) was 100 % of control. For the same compound, the T/C (dose: 100.0 mg/kg/injection, schedule: Q04DX002 (ip), vehicle: saline with Tween-80) was 100 % of control and the T/C (dose: 200.0 mg/kg/injection, schedule: Q04DX002 (ip), vehicle: other) was 96 % of control.

With `O=C(O)C(=O)c1c(O)n(-c2ccccc2)c2ccccc12` the T/C (dose: 25.0 mg/kg/injection, schedule: Q01DX001 (ip), vehicle: Klucel (hydroxypropylcellulose) (HPC)) was 95 % of control, the T/C (dose: 50.0 mg/kg/injection, schedule: Q01DX001 (ip), vehicle: Klucel (hydroxypropylcellulose) (HPC)) was 95 % of control and the T/C [2] was 93 % of control and 92 % of control.

`Oc1ccc(C2N(c3ccccc3)CCN2c2ccccc2)cc1` was tested, and the T/C (dose: 100.0 mg/kg/injection, schedule: Q01DX009 (ip), vehicle: saline with Tween-80) was 111 % of control, the T/C [5] was 92 % of control and the T/C (dose: 200.0 mg/kg/injection, schedule: Q01DX009 (ip), vehicle: saline with Tween-80) was 103 % of control. For the same compound, the T/C [6] was 97 % of control, the T/C (dose: 400.0 mg/kg/injection, schedule: Q01DX009 (ip), vehicle: saline with Tween-80) was 89 % of control and the T/C [7] was 101 % of control.

In the case of `Cc1ccc(S(=O)(=O)N(CCCc2c(Cc3ccccc3)nc(N)[nH]c2=O)c2ccccc2)cc1`, the T/C (dose: 100.0 mg/kg/injection, schedule: Q01DX009 (ip), vehicle: Klucel (hydroxypropylcellulose) (HPC)) is reported as 88 % of control, the T/C [8] is reported as 97 % of control and 105 % of control and the T/C (dose: 200.0 mg/kg/injection, schedule: Q01DX009 (ip), vehicle: Klucel (hydroxypropylcellulose) (HPC)) is reported as 93 % of control. The T/C [9] was 113 % of control and 88 % of control, the T/C (dose: 400.0 mg/kg/injection, schedule: Q01DX009 (ip), vehicle: Klucel (hydroxypropylcellulose) (HPC)) was 100 % of control and the T/C [10] was 93 % of control.

`CCCCCC(C)C(=O)CCCC` (configuration not stated) (tested in a mixture with another compound) was tested, and the T/C [5] was 106 % of control, the T/C [6] was 97 % of control and the T/C [7] was 86 % of control.

`CCCCN(CCCC)CCNc1cc(C)nc(/N=C(\N)Nc2ccc(Cl)c(Cl)c2)n1` was tested, and the T/C (dose: 38.0 mg/kg/injection, schedule: Q01DX009 (ip), vehicle: other) was 91 % of control, the T/C (dose: 38.0 mg/kg/injection, schedule: Q04DX003 (ip), vehicle: other) was 104 % of control and the T/C (dose: 75.0 mg/kg/injection, schedule: Q01DX001 (ip), vehicle: other) was 101 % of control. The T/C (dose: 75.0 mg/kg/injection, schedule: Q01DX009 (ip), vehicle: other) was 105 % of control, the T/C (dose: 75.0 mg/kg/injection, schedule: Q04DX003 (ip), vehicle: other) was 114 % of control and the T/C (dose: 150.0 mg/kg/injection, schedule: Q01DX001 (ip), vehicle: other) was 103 % of control. For the same compound, the T/C (dose: 150.0 mg/kg/injection, schedule: Q04DX003 (ip), vehicle: other) was 87 % of control and the T/C (dose: 300.0 mg/kg/injection, schedule: Q01DX001 (ip), vehicle: other) was 95 % of control.

`Cc1cc(N(CCOS(C)(=O)=O)CCOS(C)(=O)=O)ccc1C=Nc1cc(Br)c(O)c(Br)c1` was tested, and the T/C (dose: 25.0 mg/kg/injection, schedule: Q04DX003 (ip), vehicle: Klucel (hydroxypropylcellulose) (HPC)) was 107 % of control and 111 % of control, the T/C [11] was 109 % of control and the T/C (dose: 75.0 mg/kg/injection, schedule: Q04DX003 (ip), vehicle: Klucel (hydroxypropylcellulose) (HPC)) was 175 % of control.

For `Cc1[nH]c2ccccc2c(=O)c1-c1ccccc1`, the T/C [1] was 98 % of control, the T/C (dose: 100.0 mg/kg/injection, schedule: Q01DX001 (ip), vehicle: saline) was 98 % of control and the T/C (dose: 200.0 mg/kg/injection, schedule: Q01DX001 (ip), vehicle: saline) was 102 % of control. For the same compound, the T/C (dose: 400.0 mg/kg/injection, schedule: Q01DX001 (ip), vehicle: saline) was 96 % of control.

In the case of `O=C(Cn1ccc(=O)[nH]c1=O)Nc1ccc(O)c(C(=O)O)c1`, the T/C [11] is reported as 100 % of control, the T/C [8] is reported as 107 % of control and the T/C [9] is reported as 100 % of control.

For `N/C=N/O`, the T/C (dose: 12.5 mg/kg/injection, schedule: Q01DX009 (ip), vehicle: saline) was 105 % of control, the T/C (dose: 25.0 mg/kg/injection, schedule: Q01DX009 (ip), vehicle: saline) was 105 % of control and the T/C (dose: 50.0 mg/kg/injection, schedule: Q01DX009 (ip), vehicle: saline) was 111 % of control. For the same compound, the T/C (dose: 100.0 mg/kg/injection, schedule: Q01DX009 (ip), vehicle: saline) was 111 % of control, the T/C (dose: 100.0 mg/kg/injection, schedule: Q04DX003 (ip), vehicle: saline) was 101 % of control and the T/C (dose: 200.0 mg/kg/injection, schedule: Q01DX009 (ip), vehicle: saline) was 121 % of control. For the same compound, the T/C (dose: 200.0 mg/kg/injection, schedule: Q04DX003 (ip), vehicle: saline) was 111 % of control, the T/C (dose: 400.0 mg/kg/injection, schedule: Q01DX009 (ip), vehicle: saline) was 158 % of control and the T/C (dose: 400.0 mg/kg/injection, schedule: Q04DX003 (ip), vehicle: saline) was 97 % of control.

In the case of `CCOC(=O)c1[nH]c(C)c(C(=O)OC(C)(C)C)c1C`, the T/C [2] is reported as 95 % of control, the T/C [8] is reported as 95 % of control and the T/C [3] is reported as 93 % of control. For the same compound, the T/C [9] was 106 % of control, the T/C [4] was 92 % of control and the T/C [10] was 103 % of control.

For `FC(F)(F)C1=NC(=S)C(c2[nH]c(C(F)(F)F)nc2S)=N1`, the T/C (dose: 25.0 mg/kg/injection, schedule: Q01DX009 (ip), vehicle: water) was 91 % of control, the T/C (dose: 50.0 mg/kg/injection, schedule: Q01DX009 (ip), vehicle: water) was 96 % of control and the T/C (dose: 100.0 mg/kg/injection, schedule: Q01DX009 (ip), vehicle: water) was 96 % of control. The T/C (dose: 200.0 mg/kg/injection, schedule: Q01DX009 (ip), vehicle: water) was 110 % of control.
